Results reported in ChEMBL document CHEMBL1201862, “PubChem BioAssay data set” (2004).
Where “and” joins values, the source holds several entries; their conditions need not be identical. Equal entries are not always repeated.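 In this assay, cells in 96-well plates receive the compound at five concentrations for 48 hours. Endpoints are linearly interpolated between the surrounding concentrations. Abbreviation: GI50, concentration required for 50% inhibition of growth.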 Calls of active or inactive are those of the source. No stated cut-off is given here; in the data, active = GI50 up to about 1.1 µM and inactive = higher.

Tests used:
Test in all cases: growth of human tumour cells (NCI), 48 h
786-0 = system: 786-0
A498 = system: A498
A549 = system: A549
ACHN = system: ACHN
CAKI-1 = system: CAKI-1
CCRF-CEM = system: CCRF-CEM
COLO 205 = system: COLO 205
DU-145 = system: DU-145
EKVX = system: EKVX
HCT-116 = system: HCT-116
HCT-15 = system: HCT-15
HL-60 = system: HL-60
HT-29 = system: HT-29
IGROV-1 = system: IGROV-1
K562 = system: K562
KM12 = system: KM12
LOX IMVI = system: LOX IMVI
M14 = system: M14
MCF7 = system: MCF7
MDA-MB-231 = system: MDA-MB-231
MDA-MB-435 = system: MDA-MB-435
MOLT-4 = system: MOLT-4
NCI-H226 = system: NCI-H226
NCI-H460 = system: NCI-H460
NCI/ADR-RES = system: NCI/ADR-RES
OVCAR-3 = system: OVCAR-3
OVCAR-4 = system: OVCAR-4
OVCAR-5 = system: OVCAR-5
OVCAR-8 = system: OVCAR-8
RXF 393 = system: RXF 393
SF-295 = system: SF-295
SF-539 = system: SF-539
SK-MEL-28 = system: SK-MEL-28
SK-MEL-2 = system: SK-MEL-2
SK-MEL-5 = system: SK-MEL-5
SK-OV-3 = system: SK-OV-3
SN12C = system: SN12C
SNB-19 = system: SNB-19
SNB-75 = system: SNB-75
SR = system: SR
SW-620 = system: SW-620
TK-10 = system: TK-10
U-251 = system: U-251
UACC-257 = system: UACC-257
UACC-62 = system: UACC-62
UO-31 = system: UO-31
HOP-92 = system: HOP-92
MDA-N = system: MDA-N
NCI-H23 = system: NCI-H23
PC-3 = system: PC-3
SF-268 = system: SF-268
HCC 2998 = system: HCC 2998
HOP-62 = system: HOP-62
NCI-H522 = system: NCI-H522

For `OCC1OC(c2ccccc2)CC1O` (stereo not drawn), the GI50 (786-0) was > 100 µM (inactive), the GI50 (A498) was > 100 µM (inactive) and the GI50 (A549) was > 100 µM (inactive). For the same compound, the GI50 (ACHN) was > 100 µM (inactive), the GI50 (CAKI-1) was > 100 µM (inactive) and the GI50 (CCRF-CEM) was > 100 µM (inactive). For the same compound, the GI50 (COLO 205) was > 100 µM (inactive), the GI50 (DU-145) was > 100 µM (inactive) and the GI50 (EKVX) was > 100 µM (inactive). For the same compound, the GI50 (HCT-116) was > 100 µM (inactive), the GI50 (HCT-15) was over 100 µM and the GI50 (HL-60) was > 100 µM (inactive). For the same compound, the GI50 (HT-29) was > 100 µM (inactive), the GI50 (IGROV-1) was > 100 µM (inactive) and the GI50 (K562) was > 100 µM (inactive). For the same compound, the GI50 (KM12) was > 100 µM (inactive), the GI50 (LOX IMVI) was > 100 µM (inactive) and the GI50 (M14) was > 100 µM (inactive). For the same compound, the GI50 (MCF7) was > 100 µM (inactive), the GI50 (MDA-MB-231) was > 100 µM (inactive) and the GI50 (MDA-MB-435) was > 100 µM (inactive). The GI50 (MOLT-4) was > 100 µM (inactive), the GI50 (NCI-H226) was > 100 µM (inactive) and the GI50 (NCI-H460) was > 100 µM (inactive). The GI50 (NCI/ADR-RES) was > 100 µM (inactive), the GI50 (OVCAR-3) was > 100 µM (inactive) and the GI50 (OVCAR-4) was > 100 µM (inactive). For the same compound, the GI50 (OVCAR-5) was > 100 µM (inactive), the GI50 (OVCAR-8) was > 100 µM (inactive) and the GI50 (RXF 393) was > 100 µM (inactive). For the same compound, the GI50 (SF-295) was > 100 µM (inactive), the GI50 (SF-539) was > 100 µM (inactive) and the GI50 (SK-MEL-28) was > 100 µM (inactive). For the same compound, the GI50 (SK-MEL-2) was > 100 µM (inactive), the GI50 (SK-MEL-5) was > 100 µM (inactive) and the GI50 (SK-OV-3) was > 100 µM (inactive). The GI50 (SN12C) was > 100 µM (inactive), the GI50 (SNB-19) was > 100 µM (inactive) and the GI50 (SNB-75) was > 100 µM (inactive). For the same compound, the GI50 (SR) was > 100 µM (inactive), the GI50 (SW-620) was > 100 µM (inactive) and the GI50 (TK-10) was > 100 µM (inactive). For the same compound, the GI50 (U-251) was > 100 µM (inactive), the GI50 (UACC-257) was > 100 µM (inactive) and the GI50 (UACC-62) was > 100 µM (inactive). The GI50 (UO-31) was > 100 µM (inactive).

For `CC(=O)N1C(=O)CC2(N=C(C)CC2=O)c2ccccc21` (stereo not drawn), the GI50 (A498) was > 10 µM (inactive), the GI50 (A549) was > 10 µM (inactive) and the GI50 (ACHN) was > 10 µM (inactive). The GI50 (CAKI-1) was > 10 µM (inactive), the GI50 (COLO 205) was > 10 µM (inactive) and the GI50 (DU-145) was > 10 µM (inactive). The GI50 (EKVX) was > 10 µM (inactive), the GI50 (HCT-116) was > 10 µM (inactive) and the GI50 (HCT-15) was over 10 µM. The GI50 (HOP-92) was > 10 µM (inactive), the GI50 (HT-29) was > 10 µM (inactive) and the GI50 (IGROV-1) was > 10 µM (inactive). For the same compound, the GI50 (KM12) was > 10 µM (inactive), the GI50 (M14) was > 10 µM (inactive) and the GI50 (MDA-MB-231) was > 10 µM (inactive). For the same compound, the GI50 (MDA-MB-435) was > 10 µM (inactive), the GI50 (MDA-N) was > 10 µM (inactive) and the GI50 (NCI-H226) was > 10 µM (inactive). The GI50 (NCI-H23) was > 10 µM (inactive), the GI50 (NCI/ADR-RES) was > 10 µM (inactive) and the GI50 (OVCAR-3) was > 10 µM (inactive). The GI50 (OVCAR-4) was > 10 µM (inactive), the GI50 (OVCAR-5) was > 10 µM (inactive) and the GI50 (OVCAR-8) was > 10 µM (inactive). For the same compound, the GI50 (PC-3) was > 10 µM (inactive), the GI50 (RXF 393) was > 10 µM (inactive) and the GI50 (SF-268) was > 10 µM (inactive). The GI50 (SF-295) was > 10 µM (inactive), the GI50 (SF-539) was 0.0132 µM (active) and the GI50 (SK-MEL-28) was > 10 µM (inactive). For the same compound, the GI50 (SK-MEL-5) was > 10 µM (inactive), the GI50 (SN12C) was > 10 µM (inactive) and the GI50 (SNB-19) was > 10 µM (inactive). For the same compound, the GI50 (SNB-75) was > 10 µM (inactive), the GI50 (SW-620) was > 10 µM (inactive) and the GI50 (TK-10) was > 10 µM (inactive). For the same compound, the GI50 (U-251) was > 10 µM (inactive) and the GI50 (UO-31) was 1.49 µM (inactive).

With `COC(=O)/C=C/c1cc(OC)c2c(c1)C(C(=O)OC)C(c1ccc(OC)c(OC)c1)O2` (stereo not drawn) the GI50 (HOP-92) was 55.8 µM (inactive) and > 88.3 µM (inactive), the GI50 (IGROV-1) was 2.27 µM (inactive) and the GI50 (RXF 393) was 4.94 µM (inactive). For the same compound, the GI50 (SNB-75) was 1.95 µM (inactive), the GI50 (TK-10) was > 100 µM (inactive) and the GI50 (UACC-257) was > 100 µM (inactive).

With `O=C(N/N=C/c1cc(Cl)cc(Cl)c1O)c1ccccc1O` the GI50 (ACHN) was 0.346 µM (active), the GI50 (CAKI-1) was 0.723 µM (active) and the GI50 (HCC 2998) was 3.18 µM (inactive). For the same compound, the GI50 (HCT-15) was 0.395 µM, the GI50 (HL-60) was 0.175 µM (active) and the GI50 (HOP-62) was 1.67 µM (inactive). For the same compound, the GI50 (HT-29) was 3.49 µM (inactive), the GI50 (IGROV-1) was 1.69 µM (inactive) and the GI50 (K562) was 0.519 µM (active). The GI50 (LOX IMVI) was 0.303 µM (active), the GI50 (M14) was 0.521 µM (active) and the GI50 (NCI-H226) was 1.37 µM (inactive). For the same compound, the GI50 (NCI-H460) was 0.537 µM (active), the GI50 (NCI-H522) was 0.254 µM (active) and the GI50 (OVCAR-3) was 0.282 µM (active). The GI50 (OVCAR-4) was 0.22 µM (active), the GI50 (OVCAR-5) was 2.53 µM (inactive) and the GI50 (OVCAR-8) was 0.344 µM (active). For the same compound, the GI50 (RXF 393) was 1.31 µM (inactive), the GI50 (SF-268) was 0.351 µM (active) and the GI50 (SF-295) was 0.526 µM (active). The GI50 (SK-MEL-28) was 1 µM (active), the GI50 (SK-MEL-5) was 1.28 µM (inactive) and the GI50 (SK-OV-3) was 0.929 µM (active). The GI50 (SNB-19) was 1.91 µM (inactive), the GI50 (SNB-75) was 3.05 µM (inactive) and the GI50 (SR) was 0.281 µM (active). For the same compound, the GI50 (SW-620) was 0.735 µM (active), the GI50 (TK-10) was 3.06 µM (inactive) and the GI50 (U-251) was 0.445 µM (active). For the same compound, the GI50 (UACC-257) was 1.63 µM (inactive), the GI50 (UACC-62) was 0.254 µM (active) and the GI50 (UO-31) was 1.69 µM (inactive).
